# Experimental data as given in publication PMC2923838 (Chemical research in toxicology, 2009).
# Biological target: D-amino acid oxidase (DAAO) (Sus scrofa, UniProt P00371)
# Test: […] benzoate with porcine DAAO and D-Trp in […] cells
# Format: cell-based
# Settings: read-out: % attenuation at 20 mM
# Chain of D-amino acid oxidase (DAAO) (P00371 whole entry): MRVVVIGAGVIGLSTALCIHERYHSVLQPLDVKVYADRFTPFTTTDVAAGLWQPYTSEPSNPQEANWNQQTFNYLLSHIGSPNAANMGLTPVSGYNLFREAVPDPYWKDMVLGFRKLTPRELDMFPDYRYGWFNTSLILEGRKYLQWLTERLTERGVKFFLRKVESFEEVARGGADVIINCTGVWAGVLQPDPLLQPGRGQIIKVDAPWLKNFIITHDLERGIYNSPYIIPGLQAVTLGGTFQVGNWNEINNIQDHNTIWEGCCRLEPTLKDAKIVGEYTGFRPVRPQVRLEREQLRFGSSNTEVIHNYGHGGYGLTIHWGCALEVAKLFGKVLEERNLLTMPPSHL
smiles,measurement,value
O=C(O)c1ccccc1 [sodium benzoate],inhibition at 20000 µM,76%
